In EP4745137A1 (Gluetacs Therapeutics (Shanghai) Co., Ltd., priority 2023, dated 2025):

What was measured:
NCI-H1975 = test: Tumor cell proliferation inhibition (CellTiter-Meiluncell Luminescent Cell Viability Assay), NCI-H1975; details: Homo sapiens, NCI-H1975, 96 h, read-out: inhibitory activity (IC50, nM) against tumor cells proliferation, H1975
IKZF3 = target: T1, IKZF3 (Homo sapiens, UniProt Q96SW2+Q9UKT9); test: Western-blot assay of substrate protein degradation in hPBMCs, IKZF3; assay type: cell-based; details: 24 hours of compound treatment, compounds tested at 50 nM and 500 nM (concentration of the table not stated)
T1 construct: endogenous in cells; host or cells: hPBMCs (Milecell Biotechnologies)

TMD8 = test: Tumor cell proliferation inhibition (CellTiter-Meiluncell Luminescent Cell Viability Assay), TMD8; details: Homo sapiens, TMD8, 96 h, read-out: inhibitory activity (IC50, nM) against tumor cells proliferation, TMD8
[1] = target: T2, human Cereblon WT GST-tagged protein (Homo sapiens, UniProt Q96SW2); test: CRBN-binding affinity by HTRF (CEREBLON BINDING kit); details: HTRF inhibitory activity, CEREBLON BINDING kit; read-out: HTRF IC50
T2 construct: purchased CISBIO 64BDCRBNPEH

[2] = system: Human breast cancer cells (MDA-MB-231); test: Tumor cell proliferation inhibition (CellTiter-Meiluncell Luminescent Cell Viability Assay), MDA-MB-231; details: MDA-MB-231, 96 h, read-out: inhibitory activity (IC50, nM) against tumor cells proliferation, MDA-MB-231
[3] = system: Human acute T lymphocytic leukemia cells (Molt-4); test: Tumor cell proliferation inhibition (CellTiter-Meiluncell Luminescent Cell Viability Assay), Molt-4; details: MOLT-4, 96 h, read-out: inhibitory activity (IC50, nM) against tumor cells proliferation, Molt 4
Method: The tumor cells used herein were cultured in a cell culture medium listed in table 2 at 37°C in an incubator with 5% CO2. Prior to experimentation, all cell lines used were correctly identified by STR profiling, and tested negative for mycoplasma contamination using a mycoplasma detection kit through routine screenings.
On the following day, the test compounds of the present disclosure were subjected to serial dilution. […] Subsequently, 0.5 µL of the test compound dilution was transferred into the 96-well plate containing the cells, with each well containing 100 µL of cell culture medium. […] Into the 96-well plate, the diluted test compounds and corresponding detection reagents were added, resulting in final test compound concentrations of 500 nM and 10 nM, respectively. The experimental procedure is described below using the diluted 2 µM test compound as an example.
After the cells were treated with the compounds of the present disclosure for a specified period (the treatment durations were shown in Table 3), the cell viability assay reagent was added to the culture medium according to the kit's instructions to determine cell viability. […] All controls were treated using the same procedure as the compounds of the present disclosure. The growth inhibition curves for the compounds of the present disclosure were plotted using Prism GraphPad software, and the IC50 values were calculated therefrom.

WEE1 = target: T3, WEE1 (Homo sapiens, UniProt P30291+Q96SW2); test: Western-blot assay of substrate protein degradation in hPBMCs, WEE1; assay type: cell-based; details: 24 hours of compound treatment, compounds tested at 50 nM and 500 nM (concentration of the table not stated)
T3 construct: endogenous in cells; host or cells: hPBMCs (Milecell Biotechnologies)

IKZF2 = target: T4, IKZF2 (Homo sapiens, UniProt Q96SW2+Q9UKS7); test: Western-blot assay of substrate protein degradation in hPBMCs, IKZF2; assay type: cell-based; details: 24 hours of compound treatment, compounds tested at 50 nM and 500 nM (concentration of the table not stated)
T4 construct: endogenous in cells; host or cells: hPBMCs (Milecell Biotechnologies)

IKZF1 = target: T5, IKZF1 (Homo sapiens, UniProt Q13422+Q96SW2); test: Western-blot assay of substrate protein degradation in hPBMCs, IKZF1; assay type: cell-based; details: 24 hours of compound treatment, compounds tested at 50 nM and 500 nM (concentration of the table not stated)
T5 construct: endogenous in cells; host or cells: hPBMCs (Milecell Biotechnologies)

GSPT1 = target: T6, GSPT1 (Homo sapiens, UniProt P15170+Q96SW2); test: Western-blot assay of substrate protein degradation in hPBMCs, GSPT1; assay type: cell-based; details: 24 hours of compound treatment, compounds tested at 50 nM and 500 nM (concentration of the table not stated)
T6 construct: endogenous in cells; host or cells: hPBMCs (Milecell Biotechnologies)

CK1α = target: T7, CK1α (Homo sapiens, UniProt P48729+Q96SW2); test: Western-blot assay of substrate protein degradation in hPBMCs, CK1α; assay type: cell-based; details: 24 hours of compound treatment, compounds tested at 50 nM and 500 nM (concentration of the table not stated)
T7 construct: endogenous in cells; host or cells: hPBMCs (Milecell Biotechnologies)
T7 sequence (P48729 whole entry): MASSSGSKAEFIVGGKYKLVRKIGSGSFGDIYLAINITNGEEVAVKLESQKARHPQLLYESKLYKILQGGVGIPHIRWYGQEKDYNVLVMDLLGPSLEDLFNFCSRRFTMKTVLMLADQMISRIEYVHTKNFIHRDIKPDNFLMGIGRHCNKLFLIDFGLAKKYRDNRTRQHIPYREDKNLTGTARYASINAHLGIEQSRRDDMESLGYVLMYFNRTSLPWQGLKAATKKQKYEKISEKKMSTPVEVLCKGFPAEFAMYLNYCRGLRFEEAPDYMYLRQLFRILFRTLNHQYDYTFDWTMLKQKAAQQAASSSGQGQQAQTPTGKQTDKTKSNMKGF
T7 sequence (Q96SW2 whole entry): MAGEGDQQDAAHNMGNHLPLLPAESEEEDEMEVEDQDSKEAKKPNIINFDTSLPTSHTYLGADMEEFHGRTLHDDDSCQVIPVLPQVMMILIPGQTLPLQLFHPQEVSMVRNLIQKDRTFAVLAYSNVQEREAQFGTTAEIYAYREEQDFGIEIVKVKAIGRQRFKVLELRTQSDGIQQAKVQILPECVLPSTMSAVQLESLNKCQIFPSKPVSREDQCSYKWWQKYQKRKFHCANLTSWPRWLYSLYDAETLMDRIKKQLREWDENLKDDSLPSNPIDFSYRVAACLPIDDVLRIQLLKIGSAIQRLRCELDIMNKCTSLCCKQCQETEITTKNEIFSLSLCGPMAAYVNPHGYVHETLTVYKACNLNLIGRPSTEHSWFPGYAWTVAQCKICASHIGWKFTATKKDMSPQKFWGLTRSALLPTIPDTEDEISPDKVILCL
T7 sequence (Q16531 whole entry partner): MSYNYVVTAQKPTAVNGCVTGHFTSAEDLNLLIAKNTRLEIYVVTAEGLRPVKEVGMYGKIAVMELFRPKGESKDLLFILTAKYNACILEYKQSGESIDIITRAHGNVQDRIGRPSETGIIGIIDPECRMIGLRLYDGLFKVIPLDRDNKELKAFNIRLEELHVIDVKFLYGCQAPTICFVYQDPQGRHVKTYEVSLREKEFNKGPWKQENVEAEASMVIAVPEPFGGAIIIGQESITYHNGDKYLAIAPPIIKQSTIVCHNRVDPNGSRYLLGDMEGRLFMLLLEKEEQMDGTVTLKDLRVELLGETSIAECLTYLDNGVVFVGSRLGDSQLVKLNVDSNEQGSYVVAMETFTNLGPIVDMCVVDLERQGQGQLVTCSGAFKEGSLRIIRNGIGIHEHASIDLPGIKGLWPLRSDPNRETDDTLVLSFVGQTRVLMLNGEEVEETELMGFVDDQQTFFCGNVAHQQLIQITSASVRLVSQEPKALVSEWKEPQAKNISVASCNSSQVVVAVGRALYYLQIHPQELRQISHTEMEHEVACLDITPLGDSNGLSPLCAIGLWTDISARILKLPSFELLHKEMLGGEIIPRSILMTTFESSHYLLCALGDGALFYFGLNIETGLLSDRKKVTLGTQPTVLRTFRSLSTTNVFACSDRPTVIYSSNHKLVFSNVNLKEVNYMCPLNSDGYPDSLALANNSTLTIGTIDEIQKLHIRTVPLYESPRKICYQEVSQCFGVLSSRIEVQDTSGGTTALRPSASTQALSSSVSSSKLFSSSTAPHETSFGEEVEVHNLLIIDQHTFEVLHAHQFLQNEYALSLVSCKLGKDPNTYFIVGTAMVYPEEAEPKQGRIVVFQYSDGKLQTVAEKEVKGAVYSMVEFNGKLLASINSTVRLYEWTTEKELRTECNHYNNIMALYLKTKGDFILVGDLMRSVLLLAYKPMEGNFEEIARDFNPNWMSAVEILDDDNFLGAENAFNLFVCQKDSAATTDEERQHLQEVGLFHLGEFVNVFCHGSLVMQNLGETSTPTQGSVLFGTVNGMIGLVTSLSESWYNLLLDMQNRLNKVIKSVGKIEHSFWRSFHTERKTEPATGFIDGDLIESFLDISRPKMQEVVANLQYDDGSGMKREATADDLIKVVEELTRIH

T3 sequence (P30291 whole entry): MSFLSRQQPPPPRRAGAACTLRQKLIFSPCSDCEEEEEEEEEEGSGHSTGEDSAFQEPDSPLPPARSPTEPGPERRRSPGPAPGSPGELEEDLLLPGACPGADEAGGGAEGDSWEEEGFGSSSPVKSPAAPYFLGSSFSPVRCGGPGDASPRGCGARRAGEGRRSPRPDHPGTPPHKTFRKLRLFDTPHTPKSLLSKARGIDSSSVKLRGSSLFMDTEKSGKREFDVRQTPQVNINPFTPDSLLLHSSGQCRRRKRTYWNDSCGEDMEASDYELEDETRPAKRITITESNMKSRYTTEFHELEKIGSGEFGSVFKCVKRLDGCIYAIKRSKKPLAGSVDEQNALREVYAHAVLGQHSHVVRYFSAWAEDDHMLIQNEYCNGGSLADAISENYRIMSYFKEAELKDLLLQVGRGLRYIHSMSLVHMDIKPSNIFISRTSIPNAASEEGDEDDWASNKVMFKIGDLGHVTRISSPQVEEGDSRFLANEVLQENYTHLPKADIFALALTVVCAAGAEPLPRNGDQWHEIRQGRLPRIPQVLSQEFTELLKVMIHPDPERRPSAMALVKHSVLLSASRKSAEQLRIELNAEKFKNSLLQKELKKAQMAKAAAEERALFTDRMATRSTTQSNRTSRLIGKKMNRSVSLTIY
T3 sequence (Q96SW2 whole entry): as the sequence (Q96SW2 whole entry) above
T3 sequence (Q16531 whole entry partner): as the sequence (Q16531 whole entry partner) above
T5 sequence (Q13422 whole entry): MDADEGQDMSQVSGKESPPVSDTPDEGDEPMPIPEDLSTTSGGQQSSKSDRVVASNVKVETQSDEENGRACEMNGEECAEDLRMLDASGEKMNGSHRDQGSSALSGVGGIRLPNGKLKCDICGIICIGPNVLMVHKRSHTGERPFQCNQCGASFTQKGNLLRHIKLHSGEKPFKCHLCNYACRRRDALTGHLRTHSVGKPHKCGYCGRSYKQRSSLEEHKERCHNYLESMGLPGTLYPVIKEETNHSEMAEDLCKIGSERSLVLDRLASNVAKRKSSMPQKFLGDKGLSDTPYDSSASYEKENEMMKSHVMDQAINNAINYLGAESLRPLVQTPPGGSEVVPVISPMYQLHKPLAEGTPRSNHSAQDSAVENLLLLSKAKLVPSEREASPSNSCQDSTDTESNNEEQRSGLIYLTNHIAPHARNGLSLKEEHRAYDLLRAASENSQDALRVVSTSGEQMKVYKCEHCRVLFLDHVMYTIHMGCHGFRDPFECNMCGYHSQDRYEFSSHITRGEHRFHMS
T5 sequence (Q96SW2 whole entry): as the sequence (Q96SW2 whole entry) above
T5 sequence (Q16531 whole entry partner): as the sequence (Q16531 whole entry partner) above
T6 sequence (P15170 whole entry): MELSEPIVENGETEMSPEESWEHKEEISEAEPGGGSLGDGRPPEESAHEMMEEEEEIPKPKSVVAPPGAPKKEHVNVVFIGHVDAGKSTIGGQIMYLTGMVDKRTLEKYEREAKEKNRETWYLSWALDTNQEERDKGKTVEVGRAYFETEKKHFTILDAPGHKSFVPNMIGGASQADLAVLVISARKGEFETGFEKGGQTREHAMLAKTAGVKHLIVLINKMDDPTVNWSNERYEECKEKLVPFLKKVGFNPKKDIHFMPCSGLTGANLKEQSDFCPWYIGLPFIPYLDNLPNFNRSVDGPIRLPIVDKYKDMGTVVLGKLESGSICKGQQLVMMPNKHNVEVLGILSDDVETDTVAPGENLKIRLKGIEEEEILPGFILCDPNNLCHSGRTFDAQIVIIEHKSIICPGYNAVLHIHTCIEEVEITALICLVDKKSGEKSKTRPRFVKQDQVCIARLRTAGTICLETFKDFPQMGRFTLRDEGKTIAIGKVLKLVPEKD
T6 sequence (Q96SW2 whole entry): as the sequence (Q96SW2 whole entry) above
T6 sequence (Q16531 whole entry partner): as the sequence (Q16531 whole entry partner) above
T2 sequence (Q96SW2 whole entry): as the sequence (Q96SW2 whole entry) above
T4 sequence (Q9UKS7 whole entry): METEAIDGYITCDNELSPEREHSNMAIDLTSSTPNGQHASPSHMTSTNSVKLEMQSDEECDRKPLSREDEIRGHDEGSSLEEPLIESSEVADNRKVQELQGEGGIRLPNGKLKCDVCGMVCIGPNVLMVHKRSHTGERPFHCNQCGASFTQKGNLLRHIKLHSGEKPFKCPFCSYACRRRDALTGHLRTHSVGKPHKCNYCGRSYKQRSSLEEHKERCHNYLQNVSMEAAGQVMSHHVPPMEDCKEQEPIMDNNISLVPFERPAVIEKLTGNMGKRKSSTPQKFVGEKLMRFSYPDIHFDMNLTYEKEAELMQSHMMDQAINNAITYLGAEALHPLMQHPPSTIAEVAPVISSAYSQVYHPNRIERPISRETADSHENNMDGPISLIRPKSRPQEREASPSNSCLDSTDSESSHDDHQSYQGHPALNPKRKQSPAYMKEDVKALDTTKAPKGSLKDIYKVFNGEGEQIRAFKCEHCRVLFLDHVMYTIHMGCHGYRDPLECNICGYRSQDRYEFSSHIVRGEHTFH
T4 sequence (Q96SW2 whole entry): as the sequence (Q96SW2 whole entry) above
T4 sequence (Q16531 whole entry partner): as the sequence (Q16531 whole entry partner) above

SMILES | IC50 (NCI-H1975) [nM] | IKZF3 substrate protein remaining % (IKZF3) | IC50 (TMD8) [nM] | IC50 [1] [nM] | IC50 [2] [nM] | IC50 [3] [nM] | Weel substrate protein remaining % (WEE1) | IKZF2 substrate protein remaining % (IKZF2) | IKZF 1 substrate protein remaining % (IKZF1) | GSPT1 substrate protein remaining % (GSPT1) | CK1a substrate protein remaining % (CK1α)
O=C1CCC(N2Cc3cc(CN4C[C@H]5C[C@@H]4CN5c4cccc(Cl)c4Cl)ccc3C2=O)C(=O)N1 (stereo partly drawn) [GT-04724, 3-(5-(((1R,4R)-5-(2,3-dichlorophenyl)-2,5-diazabicyclo[2.2.1]heptan-2-yl)methyl)-1-oxoisoindolin-2-yl)piperidine-2,6-dione] | 50 to 100 | A (0% ≤ substrate protein remaining % ≤ 80%) | 50 to 100 | < 500 | 10 to 50 | 5 to 10 | A (0% ≤ substrate protein remaining % ≤ 80%) | A (0% ≤ substrate protein remaining % ≤ 80%) | A (0% ≤ substrate protein remaining % ≤ 80%) | A (0% ≤ substrate protein remaining % ≤ 80%) | A (0% ≤ substrate protein remaining % ≤ 80%)
O=C1CCC(N2Cc3cc(CN4CC=C(c5c[nH]c6ncccc56)CC4)ccc3C2=O)C(=O)N1 (centres unmarked) [GT-04602, 3-(5-((4-(1H-pyrrolo[2,3-b]pyridin-3-yl)-3,6-dihydropyridin-1(2H)-yl)methyl)-1-oxoisoindolin-2-yl)piperidine-2,6-dione] | 10 to 50 | A (0% ≤ substrate protein remaining % ≤ 80%) | 10 to 50 | < 500 | 10 to 50 | 1 to 5 | A (0% ≤ substrate protein remaining % ≤ 80%) | A (0% ≤ substrate protein remaining % ≤ 80%) | A (0% ≤ substrate protein remaining % ≤ 80%) | A (0% ≤ substrate protein remaining % ≤ 80%) | A (0% ≤ substrate protein remaining % ≤ 80%)
O=C1CCC(N2Cc3cc(CN4CCC(c5cccs5)CC4)ccc3C2=O)C(=O)N1 (centres unmarked) [GT-04571, 3-(1-oxo-5-((4-(thiophen-2-yl)piperidin-1-yl)methyl)isoindolin-2-yl)piperidine-2,6-dione] | 50 to 100 | A (0% ≤ substrate protein remaining % ≤ 80%) | 100 to 500 | 1000 to 1500 | 10 to 50 | 5 to 10 | A (0% ≤ substrate protein remaining % ≤ 80%) | A (0% ≤ substrate protein remaining % ≤ 80%) | A (0% ≤ substrate protein remaining % ≤ 80%) | A (0% ≤ substrate protein remaining % ≤ 80%) | A (0% ≤ substrate protein remaining % ≤ 80%)
O=C1CCC(N2Cc3cc(CN4CC=C(c5ccoc5)CC4)ccc3C2=O)C(=O)N1 (centres unmarked) [GT-04589, 3-(5-((4-(furan-3-yl)-3,6-dihydropyridin-1(2H)-yl)methyl)-1-oxoisoindolin-2-yl)piperidine-2,6-dione] | 100 to 500 | B (80%< substrate protein remaining %≤ 100%) | 500 to 1000 | < 500 | 100 to 500 | 10 to 50 | B (80%< substrate protein remaining %≤ 100%) | A (0% ≤ substrate protein remaining % ≤ 80%) | B (80%< substrate protein remaining %≤ 100%) | A (0% ≤ substrate protein remaining % ≤ 80%) | B (80%< substrate protein remaining %≤ 100%)
